Values joined by “and” are separate entries in the source; they are usually repeats but may differ in a detail not shown here. Equal entries are not always repeated.

A word on the T/C: it is the result in the treated group divided by that in the control group, in per cent.

For the experiment, the system named is BDF1 mice, Adenocarcinoma 755 s.c., tumor weight T/C. The experiment in a line: NCI In Vivo Anticancer Drug Screen. Data for tumor model Adenocarcinoma 755 (subcutaneous) in B6D2F1 (BDF1) mice. The settings on record: endpoint: mean tumor weight, higher = larger tumour. The protocol: The antitumor activity of compounds was measured in mice bearing transplantable tumors. Survival or tumor size were measured and the results are expressed as the measurement made in the treated group (T) divided by the measurement made in the vehicle treated control group (C). The tumor model used in this assay is Adenocarcinoma 755 (subcutaneous) in B6D2F1 (BDF1) mice

For the compound `Nc1nc(SCc2ccncc2)c2[nH]cnc2n1`, the T/C (dose: 1.25 mg/kg/injection, schedule: Q01DX011 (ip), vehicle: methylcellulose (MC)) was 71 % of control; the T/C (dose: 2.5 mg/kg/injection, schedule: Q01DX011 (ip), vehicle: methylcellulose (MC)) was 41 % of control; the T/C (dose: 5.0 mg/kg/injection, schedule: Q01DX011 (ip), vehicle: methylcellulose (MC)) was 31 % of control; the T/C (dose: 10.0 mg/kg/injection, schedule: Q01DX011 (ip), vehicle: methylcellulose (MC)) is 9 % of control and 12 % of control; the T/C (dose: 20.0 mg/kg/injection, schedule: Q01DX011 (ip), vehicle: methylcellulose (MC)) was 3 % of control.

On to `N#CCSc1ncnc2nc[nH]c12`, for which the T/C by setting is: (dose: 1.0 mg/kg/injection, schedule: Q01DX011 (im), vehicle: carboxymethylcellulose (CMC)) 63 % of control; (dose: 1.0 mg/kg/injection, schedule: Q01DX011 (ip), vehicle: carboxymethylcellulose (CMC)) 54 % of control; (dose: 1.0 mg/kg/injection, schedule: Q01DX011 (iv), vehicle: carboxymethylcellulose (CMC)) 79 % of control; (dose: 1.0 mg/kg/injection, schedule: Q01DX011 (sc), vehicle: carboxymethylcellulose (CMC)) 53 % of control; (dose: 2.0 mg/kg/injection, schedule: Q01DX011 (im), vehicle: carboxymethylcellulose (CMC)) 9 % of control; (dose: 2.0 mg/kg/injection, schedule: Q01DX011 (ip), vehicle: carboxymethylcellulose (CMC)) 14 % of control. Besides, the T/C was 28 % of control (dose: 2.0 mg/kg/injection, schedule: Q01DX011 (iv), vehicle: carboxymethylcellulose (CMC)); 10 % of control (dose: 2.0 mg/kg/injection, schedule: Q01DX011 (sc), vehicle: carboxymethylcellulose (CMC)); 1 % of control (dose: 4.0 mg/kg/injection, schedule: Q01DX011 (im), vehicle: carboxymethylcellulose (CMC)); 6 % of control (dose: 4.0 mg/kg/injection, schedule: Q01DX011 (ip), vehicle: carboxymethylcellulose (CMC)); 7 % of control (dose: 8.0 mg/kg/injection, schedule: Q01DX011 (ip), vehicle: carboxymethylcellulose (CMC)); 1 % of control (dose: 8.0 mg/kg/injection, schedule: Q01DX011 (iv), vehicle: carboxymethylcellulose (CMC)). Also, the T/C is, setting by setting: (dose: 16.0 mg/kg/injection, schedule: Q01DX011 (ip), vehicle: carboxymethylcellulose (CMC)) 3 % of control; (dose: 50.0 mg/kg/injection, schedule: Q03DX004 (ip), vehicle: carboxymethylcellulose (CMC)) 2 % of control; (dose: 64.0 mg/kg/injection, schedule: Q01DX011 (ip), vehicle: carboxymethylcellulose (CMC)) 2 % of control; (dose: 100.0 mg/kg/injection, schedule: Q01DX001 (ip), vehicle: carboxymethylcellulose (CMC)) 20 % of control; (dose: 100.0 mg/kg/injection, schedule: Q03DX004 (ip), vehicle: carboxymethylcellulose (CMC)) 1 % of control; (dose: 100.0 mg/kg/injection, schedule: Q07DX002 (ip), vehicle: carboxymethylcellulose (CMC)) 5 % of control. In addition, the T/C is 20 % of control (dose: 200.0 mg/kg/injection, schedule: Q01DX001 (ip), vehicle: carboxymethylcellulose (CMC)) and 3 % of control (dose: 200.0 mg/kg/injection, schedule: Q07DX002 (ip), vehicle: carboxymethylcellulose (CMC)).

`CCCCCCCCCCCCNCCCCCCCCCCCC`: the T/C (dose: 2.5 mg/kg/injection, schedule: Q01DX011 (ip), vehicle: other) is 41 % of control.

Turning to `CNc1ncnc2c1ncn2C1CC(O)C(CO)O1` (configuration not stated), the T/C is 92 % of control (dose: 60.0 mg/kg/injection, schedule: Q01DX011 (ip), vehicle: saline) and 94 % of control (dose: 120.0 mg/kg/injection, schedule: Q01DX011 (ip), vehicle: saline).

On to `CCC(=O)O[C@H]1CC[C@H]2[C@@H]3CC[C@H]4CC(=O)[C@H](C)C[C@]4(C)[C@H]3CC[C@]12C`, for which the T/C was 109 % of control and 115 % of control (dose: 44.13 mg/kg/injection, schedule: Q01DX011 (sc), vehicle: steriod suspending solution); 156 % of control (dose: 88.25 mg/kg/injection, schedule: Q01DX011 (sc), vehicle: steriod suspending solution); 101 % of control (dose: 125.0 mg/kg/injection, schedule: Q01DX011 (sc), vehicle: steriod suspending solution); 154 % of control (dose: 353.0 mg/kg/injection, schedule: Q01DX011 (sc), vehicle: steriod suspending solution); 176 % of control (dose: 500.0 mg/kg/injection, schedule: Q01DX011 (sc), vehicle: steriod suspending solution); 124 % of control (dose: 1000.0 mg/kg/injection, schedule: Q01DX011 (sc), vehicle: steriod suspending solution).

Regarding `NC(=O)c1ccccc1Nc1ccc([N+](=O)[O-])cc1[N+](=O)[O-]`, the T/C was 102 % of control (dose: 34.0 mg/kg/injection, schedule: Q01DX011 (ip), vehicle: carboxymethylcellulose (CMC)) and 115 % of control (dose: 100.0 mg/kg/injection, schedule: Q01DX011 (ip), vehicle: carboxymethylcellulose (CMC)).

Regarding `O=C(Nc1cccc(C2=NCCN2)c1)c1ccc(N=Nc2ccc(C(=O)Nc3cccc(C4=NCCN4)c3)cc2)cc1`, the T/C is 81 % of control (dose: 15.0 mg/kg/injection, schedule: Q01DX011 (ip), vehicle: methylcellulose (MC)); 70 % of control (dose: 30.0 mg/kg/injection, schedule: Q01DX011 (ip), vehicle: methylcellulose (MC)); 68 % of control (dose: 60.0 mg/kg/injection, schedule: Q01DX011 (ip), vehicle: methylcellulose (MC)); 70 % of control (dose: 120.0 mg/kg/injection, schedule: Q01DX011 (ip), vehicle: methylcellulose (MC)).

As to `NC(=O)c1cc(N)nc(Cl)n1`, the T/C (dose: 15.0 mg/kg/injection, schedule: Q01DX011 (ip), vehicle: saline) was 102 % of control; the T/C (dose: 31.0 mg/kg/injection, schedule: Q01DX011 (ip), vehicle: saline) was 90 % of control; the T/C (dose: 62.0 mg/kg/injection, schedule: Q01DX011 (ip), vehicle: saline) is 87 % of control; the T/C (dose: 125.0 mg/kg/injection, schedule: Q01DX011 (ip), vehicle: saline) is 83 % of control; the T/C (dose: 250.0 mg/kg/injection, schedule: Q01DX011 (ip), vehicle: saline) is 61 % of control.

In the case of `O=C(CC[n+]1ccccc1)N1CCN(C(=O)CC[n+]2ccccc2)CC1`, the T/C by setting is: (dose: 1.0 mg/kg/injection, schedule: Q01DX011 (ip), vehicle: methylcellulose (MC)) 94 % of control; (dose: 3.0 mg/kg/injection, schedule: Q01DX011 (ip), vehicle: methylcellulose (MC)) 68 % of control.

In the case of `CC(=O)OCC1OC(n2cnc3c(=S)nc[nH]c32)C(OC(C)=O)C1OC(C)=O` (configuration not stated), the T/C was 84 % of control (dose: 0.2 mg/kg/injection, schedule: Q01DX011 (ip), vehicle: carboxymethylcellulose (CMC)); 93 % of control (dose: 0.4 mg/kg/injection, schedule: Q01DX011 (ip), vehicle: carboxymethylcellulose (CMC)); 61 % of control (dose: 0.9 mg/kg/injection, schedule: Q01DX011 (ip), vehicle: carboxymethylcellulose (CMC)); 14 % of control and 31 % of control (dose: 1.8 mg/kg/injection, schedule: Q01DX011 (ip), vehicle: carboxymethylcellulose (CMC)); 6 % of control (dose: 3.7 mg/kg/injection, schedule: Q01DX011 (ip), vehicle: carboxymethylcellulose (CMC)); 3 % of control (dose: 7.5 mg/kg/injection, schedule: Q01DX011 (ip), vehicle: carboxymethylcellulose (CMC)). Further, the T/C (dose: 15.0 mg/kg/injection, schedule: Q01DX011 (ip), vehicle: carboxymethylcellulose (CMC)) is 2 % of control.

Regarding `CS(C)=O`, the T/C by setting is: (dose: 1000.0 mg/kg/injection, schedule: Q01DX011 (ip), vehicle: other) 71 % of control; (dose: 1000.0 mg/kg/injection, schedule: Q#A X022 (ip), vehicle: other) 25 % of control; (dose: 1500.0 mg/kg/injection, schedule: Q01DX011 (ip), vehicle: other) 115 % of control; (dose: 1500.0 mg/kg/injection, schedule: Q#A X022 (ip), vehicle: other) 67 % of control.

In the case of `CCCCCn1cnc2c(SCc3ccccc3)nc(N)nc21`, the T/C is 68 % of control (dose: 37.5 mg/kg/injection, schedule: Q01DX011 (ip), vehicle: saline); 78 % of control (dose: 75.0 mg/kg/injection, schedule: Q01DX011 (ip), vehicle: saline); 77 % of control (dose: 150.0 mg/kg/injection, schedule: Q01DX011 (ip), vehicle: saline).

As for `Cn1c(=O)c2c(nc(N/N=C/c3ccccc3C(=O)O)n2C)n(C)c1=O`, the T/C was 76 % of control (dose: 30.0 mg/kg/injection, schedule: Q01DX011 (ip), vehicle: carboxymethylcellulose (CMC)); 69 % of control (dose: 60.0 mg/kg/injection, schedule: Q01DX011 (ip), vehicle: carboxymethylcellulose (CMC)); 74 % of control (dose: 120.0 mg/kg/injection, schedule: Q01DX011 (ip), vehicle: carboxymethylcellulose (CMC)); 62 % of control (dose: 240.0 mg/kg/injection, schedule: Q01DX011 (ip), vehicle: carboxymethylcellulose (CMC)).

For `COc1ccc(C2=NC(=O)NC2c2ccc(OC)cc2)cc1` (configuration not stated), the T/C (dose: 10.0 mg/kg/injection, schedule: Q01DX011 (ip), vehicle: saline) is 112 % of control and the T/C (dose: 50.0 mg/kg/injection, schedule: Q01DX011 (ip), vehicle: saline) is 18 % of control.

(Values after PubChem BioAssay AID180 (DTP/NCI, 2004).)
